{
  "source": "patent US20210332396A1",
  "about": "“GENETIC ELEMENTS IN ENTEROCOCCUS SPP. TO PRODUCE DOPAMINE” (Iowa State University Research Foundation, Inc., priority 2018, published 2021)",
  "key": {"[1]": {"settings": "cited from earlier work"}, "E. faecium strain ML1082": {"tested_on": "E. faecium strain ML1082", "experiment": "Inhibition of dopamine production of strain ML1082 by Carbidopa in sSIM", "assay_type": "cell-based, Enterococcus faecium", "procedure": "To further verify the strains were producing dopamine from L-DOPA, Carbidopa, an inhibitor of dopamine production through L-DOPA decarboxylation, was added to sSIM. […] A functional approximation of the ICso for dopamine was calculated to be 1.53E^−3. The IC50 was similar to the L-DOPA concentration of the broth, 1.26 mM, a finding that may indicate a competitive inhibitory mechanism for the bacterial enzyme."}},
  "data": [
    {"smiles": "NCCc1ccc(O)c(O)c1", "note": "[dopamine]", "values": [
      {"measurement": "half-life of auto-oxidation", "setting": "[1]; pH of 5.6", "result": 324, "unit": "h"},
      {"measurement": "reaction rate for the auto-oxidation (k)", "setting": "[1]; pH of 5.6", "result": 0.000000591, "unit": "s⁻¹"},
      {"measurement": "half-life of oxidation", "setting": "[1]; pH of 7.4", "result": 4.95, "unit": "min"},
      {"measurement": "oxidation rate", "setting": "[1]; pH of 7.4", "result": 0.000586, "unit": "s⁻¹"}
    ]},
    {"smiles": "C[C@@](Cc1ccc(O)c(O)c1)(NN)C(=O)O", "note": "[Carbidopa]", "values": [
      {"measurement": "inhibition of dopamine production (in words)", "setting": "E. faecium strain ML1082", "result": "dose-dependent inhibition"}
    ]}
  ]
}
